pIC50: −log10 of the molar value.
Columns and labels:
[1] = Oral bioavailability in DA rat at 3 mg/kg; type: ADME, organism-based; details: in vivo
[2] = target: T1, Nuclear receptor ROR-beta (Homo sapiens, UniProt Q92753); assay: Inhibition of Gal4-tagged RORbeta LBD (unknown origin) by cell based luciferase reporter gene assay
T1 sequence (Q92753 whole entry): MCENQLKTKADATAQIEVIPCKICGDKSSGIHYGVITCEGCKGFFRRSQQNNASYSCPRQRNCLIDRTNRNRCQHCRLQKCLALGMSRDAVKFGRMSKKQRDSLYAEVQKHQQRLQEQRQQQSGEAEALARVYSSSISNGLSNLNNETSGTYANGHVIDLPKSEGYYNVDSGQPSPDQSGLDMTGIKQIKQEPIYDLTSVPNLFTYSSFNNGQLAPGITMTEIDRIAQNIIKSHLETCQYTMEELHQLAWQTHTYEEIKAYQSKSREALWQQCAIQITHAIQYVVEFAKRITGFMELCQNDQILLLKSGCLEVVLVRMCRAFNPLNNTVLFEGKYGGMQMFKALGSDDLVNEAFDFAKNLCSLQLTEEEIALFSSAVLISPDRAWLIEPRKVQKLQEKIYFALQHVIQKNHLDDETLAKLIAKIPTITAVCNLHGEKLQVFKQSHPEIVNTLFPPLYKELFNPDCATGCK

Bile acid receptor = target: T2, Bile acid receptor (Homo sapiens, UniProt Q96RI1); assay: Inhibition of Gal4-tagged FXR LBD (unknown origin) by cell based luciferase reporter gene assay
T2 sequence (Q96RI1 whole entry): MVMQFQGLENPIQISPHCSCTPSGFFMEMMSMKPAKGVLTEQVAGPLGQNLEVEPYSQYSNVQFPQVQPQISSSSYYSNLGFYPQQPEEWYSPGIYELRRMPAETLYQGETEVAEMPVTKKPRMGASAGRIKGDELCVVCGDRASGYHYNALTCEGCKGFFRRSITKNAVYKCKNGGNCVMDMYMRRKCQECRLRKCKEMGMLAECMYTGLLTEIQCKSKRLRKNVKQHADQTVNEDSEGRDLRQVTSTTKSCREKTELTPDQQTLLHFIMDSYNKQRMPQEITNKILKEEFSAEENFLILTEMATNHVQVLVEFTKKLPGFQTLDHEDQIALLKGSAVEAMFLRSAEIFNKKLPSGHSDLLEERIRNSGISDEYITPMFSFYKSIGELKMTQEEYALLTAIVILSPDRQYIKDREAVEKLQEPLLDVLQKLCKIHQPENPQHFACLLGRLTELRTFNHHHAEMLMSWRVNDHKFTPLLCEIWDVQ

Progesterone receptor = target: T3, Progesterone receptor (Homo sapiens, UniProt P06401); assay: Inhibition of Gal4-tagged PR LBD (unknown origin) by cell based luciferase reporter gene assay
T3 sequence (P06401 whole entry): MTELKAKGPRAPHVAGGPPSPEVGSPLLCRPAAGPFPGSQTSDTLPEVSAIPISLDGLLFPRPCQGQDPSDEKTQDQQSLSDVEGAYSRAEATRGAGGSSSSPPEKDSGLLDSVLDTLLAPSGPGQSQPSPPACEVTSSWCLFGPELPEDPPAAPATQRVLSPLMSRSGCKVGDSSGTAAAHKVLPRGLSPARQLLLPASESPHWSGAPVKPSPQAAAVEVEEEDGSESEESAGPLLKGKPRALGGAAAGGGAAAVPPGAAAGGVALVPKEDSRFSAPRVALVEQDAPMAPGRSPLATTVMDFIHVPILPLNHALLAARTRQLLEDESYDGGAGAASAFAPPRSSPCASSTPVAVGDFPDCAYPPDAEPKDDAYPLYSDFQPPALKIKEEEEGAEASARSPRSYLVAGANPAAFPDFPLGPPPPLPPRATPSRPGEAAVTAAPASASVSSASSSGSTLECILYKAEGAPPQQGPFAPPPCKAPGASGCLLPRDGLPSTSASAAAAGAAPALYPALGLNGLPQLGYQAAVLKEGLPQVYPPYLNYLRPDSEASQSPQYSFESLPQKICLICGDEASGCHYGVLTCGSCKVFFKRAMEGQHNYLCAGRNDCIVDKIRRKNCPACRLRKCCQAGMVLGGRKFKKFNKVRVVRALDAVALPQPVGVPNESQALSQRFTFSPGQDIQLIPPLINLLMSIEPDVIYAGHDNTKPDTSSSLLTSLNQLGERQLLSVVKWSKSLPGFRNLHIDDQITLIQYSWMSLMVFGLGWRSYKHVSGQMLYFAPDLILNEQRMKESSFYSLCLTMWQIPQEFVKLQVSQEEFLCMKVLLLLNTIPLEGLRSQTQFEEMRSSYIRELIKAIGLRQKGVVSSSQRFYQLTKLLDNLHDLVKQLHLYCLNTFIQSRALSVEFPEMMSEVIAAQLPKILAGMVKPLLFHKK

Vitamin D3 receptor = target: T4, Vitamin D3 receptor (Homo sapiens, UniProt P11473); assay: Inhibition of Gal4-tagged VDR LBD (unknown origin) by cell based luciferase reporter gene assay
T4 sequence (P11473 whole entry): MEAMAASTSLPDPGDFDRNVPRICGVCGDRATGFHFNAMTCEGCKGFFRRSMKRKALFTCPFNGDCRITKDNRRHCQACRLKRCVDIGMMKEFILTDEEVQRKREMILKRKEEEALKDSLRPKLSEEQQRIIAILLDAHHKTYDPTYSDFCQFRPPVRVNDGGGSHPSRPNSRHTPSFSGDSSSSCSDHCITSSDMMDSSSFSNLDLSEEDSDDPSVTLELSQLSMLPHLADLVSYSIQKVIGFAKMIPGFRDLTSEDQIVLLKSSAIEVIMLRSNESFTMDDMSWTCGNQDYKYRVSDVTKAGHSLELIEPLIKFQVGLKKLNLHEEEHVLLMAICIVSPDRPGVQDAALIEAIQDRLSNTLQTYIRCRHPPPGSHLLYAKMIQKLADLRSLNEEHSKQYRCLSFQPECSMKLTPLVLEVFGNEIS

Rattus norvegicus = assay: Anti-inflammatory activity in mBSA/CFA-immunized Lewis rat delayed-type hypersensitivity model assessed as reduction in ear swelling at 1 to 15 mg/kg, po via gavage administered twice daily for 2 days treated prior to mBSA/CFA challenge measured after up to 50 hrs; type: functional, organism-based

Structure (SMILES): Cc1c(C2(C(F)(F)F)CC2)nc(C2CC2)n1-c1c(Cl)ccc(N2CC3(CC(C(=O)O)C3)C2)c1Cl (single isomer, unassigned; atropisomer)
- bioavailability [1]: 90%
- pIC50 [2]: < 5.00
- pIC50 (Bile acid receptor): < 5.00
- pIC50 (Progesterone receptor): < 5.00
- pIC50 (Vitamin D3 receptor): < 5.00
- Activity (Rattus norvegicus): Dose-dependent effect

From ChEMBL document CHEMBL4321852, “Structure-Based and Property-Driven Optimization of N-Aryl Imidazoles toward Potent and Selective Oral RORγt Inhibitors” (J Med Chem, 2019)
